# Assay results: patent US8273771B2, “Ischemic disorder or disease inhibitors” (Pronas Pharma AB, priority 2007, dated 2012)
# System: rats with induced SAH
# Assay: Autoradiographic measurements of regional and global CBF after SAH
# Type: in vivo, rat
# Details: for reduction in regional CBF (rCBF) after SAH: 18 brain regions
# Method: In addition they were treated with 20-50 μl; 10^-6 M of SB386023-b (a kind gift from Dr A A Parsons, GSK, UK) or the same volume of vehicle repeatedly 6, 12, 24 and 36 h after the induced SAH. This dose was based on a previous in vivo study with SAH.
# In addition, they were treated with the PKC inhibitor RO-31-7549 (Calbiochem, Sweden) or vehicle in conjunction with the operation and after the induced SAH. All animals treated with RO-31-7549 received […] injections intracisternally of RO-31-7549 or vehicle in similar volume. Thus, 20 to 50 μl 10-^6 mol/L of RO-31-7549 was injected intracisternally at 30 mins before the induced SAH and after the SAH 20 μl 10-^6 mol/L of RO-31-7549 was administered repeatedly after 3, 6, 12, 24 and 32 h from the first RO-31-7549 injection. This dose was chosen on the basis of previous detailed work on isolated cerebral arteries (Hansen-Schwartz et al, 2002), the dose was chosen at near maximum inhibition and calculation of cerebrospinal fluid volume/turnover.
# Regional and global cerebral blood flow was measured by a model originally described by Sakurada et al., (1978) and modified by Gjedde et al., (1980). In brief, after 48 hours of observation rats in the various groups (sham, SAH+vehicle and SAH treated with the raf inhibitor) were anaesthetized using 5% halothane in N2O/O2 (30:70). The animal was intubated and artificially ventilated with inhalation of 0.5-1.5% halothane in N2O/O2 (70:30) during the surgical procedure. The anaesthesia and the respiration were monitored by regularly withdrawing arterial blood samples for blood gas analysis (Radiometer AS, Denmark). A catheter to measure MABP was placed in the right femoral artery and a catheter for blood sampling was placed in the left femoral artery. This catheter was connected to a constant velocity withdrawal pump (Harvard apparatus 22, USA) for mechanical integration of tracer concentration. In addition, a catheter was inserted in one femoral vein for injection of heparin and for infusion of the radioactive tracer. The MABP was continuously monitored with a Powerlab Unit (ADInstruments, UK). A temperature probe was inserted into the rectum of the rat to record the temperature, which was regularly maintained at 37° C. The hematocrit was measured by a hematocrit centrifuge (Beckman Microfuge 11, USA). After 30 minutes of equilibration a bolus injection of 50 uCi of 14Ciodoantipyrine 4[N-methyl-14C] (Perkin-Elmer, Boston, USA) was given i.v. Arterial blood (122 μl) was withdrawn over 20 seconds. Immediately after this the animal was decapitated, the brain removed and immersed in isopentane (J. T. Baker, Deventer, Netherlands) chilled to −50° C. The arterial blood sample was transferred to liquid scintillation counting vials containing 1 ml mixture of Soluene-350 (Perkin-Elmer, Boston, USA) and Isopropanol (J. T. Baker, Deventer, Netherlands) (1:1). After 2 hours at 60° C., 0.2 ml of 30% hydrogen peroxide was added to the vials, and the samples were maintained at room temperature for 15-30 minutes. Thereafter the samples were kept at 60° C. for 30 minutes and 10-15 ml Hionic-Fluor (Perkin-Elmer, Foster, Calif., USA) was added. The β-radioactivity scintillation counting was performed on the samples with a program that included quench correction (Packard 2000 CA, Denmark). The 14C activity in the tissue was determined after sectioning the brain in 20 μm sections at −20° C. in a cryostat (Wild Leitz A/S, Glostrup, Denmark). The sections were exposed to x-ray films (Kodak, Denmark) together with 14C methylmethacrylate standards (Amersham Life Science, England) and exposed the films for 20 days. Densities of the autoradiograms were measured with a Macintosh computer equipped with an analog CF 4/1 camera (Kaiser, Germany) and a transparency flat viewer (Color-Control 5000, Weilheim, Germany). The 14C content was determined in several brain regions (see Table 2). […]
# [1] = intracisternal injections from 30 min before SAH and repeatedly after
Compound,global reduction in CBF after SAH [1],reduction in regional CBF (rCBF) after SAH [1],"global cerebral blood flow (measured at 48 h, treatment 6 h after the SAH, control 140±6, SAH 63±2) [ml/100 g/min]",reduction in regional CBF (rCBF) after SAH (treatment at 6 h after SAH),reduction in regional CBF (rCBF) after SAH (treatment at 0 h / in conjunction with the SAH)
Cn1cc(C2=C(c3cn(CCCN)c4ccccc34)C(=O)NC2=O)c2ccccc21 [RO-31-7549],prevented the marked reduction in CBF,prevented this reduction in rCBF,–,–,–
Oc1cc(-c2nc(-c3ccccc3)[nH]c2-c2ccncc2)ccc1Cl [SB386023-b],–,–,128±4,prevented this reduction in rCBF,–
N#CC(=C(/N)Sc1ccccc1N)/C(C#N)=C(\N)Sc1ccccc1N [U0126],–,–,–,prevented this reduction in rCBF,prevented this reduction in rCBF
